The values below come from a melting point compilation (Tetko et al.).

The melting point is the temperature, or range, at which the solid turns liquid. The compound `O=C(O)c1cc(F)cc(C(F)(F)F)c1` registered a melting point of 104 to 108 °C. The same measure for `N#CC1(c2ccc(F)cc2Cl)CCCCC1`: 58 to 65 °C; for `Cc1ncc(C(=O)O)c(-c2ccccc2)n1`: 210 to 211 °C. In turn, `O=Cc1cccc2ccnn12` came in with a melting point of 85 °C. To `OCCC1CCCCN1` (stereo not given) belongs 69 °C; to `Oc1ccc(Cl)c2cccnc12`, 130 °C; to `CCCCCCCCCCCCOC1OC(CO)C(OC2OC(CO)C(O)C(O)C2O)C(O)C1O` (stereo not given), 217 °C. The same measure for `O=C1CCC(=O)N1CN1C(=O)C(=Cc2ccco2)SC1=S`: 166 °C. In turn, `COC(=O)Cc1ccc(O)cc1` gave a melting point of 57 °C.

For `COc1c(C(=O)Cl)csc1Br`, the melting point is 79 to 82 °C. The same measure for `COC(=O)CC(=O)c1ccc(C(F)(F)F)cc1`: 57 to 62 °C. To `CC(C)(C)c1ccc(-c2noc(CCl)n2)cc1` belongs 46 to 48 °C; to `O=C1c2ccccc2C(=O)C1C(=O)C(c1ccccc1)c1ccc(Cl)cc1` (stereo not given), 140 °C; to `Cc1c(C(=O)CBr)sc2ccc(Cl)cc12`, 154 to 156 °C. To `Cc1nnc(-c2cccc(S(=O)(=O)Cl)c2)o1` belongs 56 to 59 °C. Consider `CCOP(=S)(OCC)Oc1cnc2ccccc2n1`, for which the melting point was found to be 31.5 °C. The same measure for `O=C(Oc1c(F)c(F)c(F)c(F)c1F)c1ccnc(N2CCSCC2)c1`: 99 to 100 °C; for `CCCCC(=O)OC1(C(=O)CO)C(C)CC2C3CCC4=CC(=O)C=CC4(C)C3(F)C(O)CC21C` (stereo not given): 184 °C.

Compound `C=CCc1ccccc1` yielded a melting point of -40 °C.

Consider `O=C(O)CCCCCl`, for which the melting point was determined as 18 °C. To `O=C(COc1ccccc1)c1ccc(O)cc1O` belongs 207 to 208 °C.

`O=C(O)C=Cc1ccccc1Br` registered a melting point of 215 to 216 °C. To `O=C(O)C(F)(F)C(F)(F)C(F)(F)C(F)(F)C(F)(F)C(F)(C(F)(F)F)C(F)(F)F` belongs 33 to 36 °C; to `Clc1ccc(Cc2ccc(Cl)cc2)cc1`, 55.5 °C; to `O=C(Oc1ccccc1)c1ccc(C(=O)Oc2ccccc2)cc1`, 197 °C. Take `O=[N+]([O-])c1ccc(OC(F)F)cc1`: the melting point worked out at 34 °C. In turn, `O=[N+]([O-])c1cccc(C=NNc2ccccc2)c1` came in with a melting point of 123 °C. Take `Oc1ccc(C2COc3cc(O)ccc3C2)cc1` (stereo not given): the melting point is 190 °C. The same measure for `N#CC(=C1CCCC1)c1nc2ccccc2s1`: 235 °C; for `O=S(=O)(Cl)c1cc(S(=O)(=O)Cl)c(Cl)s1`: 79 to 84 °C. The same measure for `CC#CCN1C(=O)c2ccccc2C1=O`: 221 °C. The same measure for `CCOC(=O)NC(=O)Nn1c(S)nnc1C(F)(F)F`: 232 °C; for `NC(=O)Cc1ccc(O)cc1`: 176 to 180 °C. As for `COc1cc(OCc2ccccc2)ccc1C=O`, the melting point worked out at 96 °C. For the compound `O=C1NN(c2ccccc2)C(=O)C1(Br)Br`, the melting point is 119 °C. As for `CC=CC=CC=CC=O`, the melting point was determined as 56.8 °C. The same measure for `CCOC(=O)C1=NN(c2ccc(Cl)cc2Cl)C(=O)C1C(Cl)C1(Cl)C(=O)N(c2ccc(Cl)cc2Cl)N=C1C(=O)OCC` (stereo not given): 99 °C. To `NC(CC1CCCCC1)C(=O)O` (stereo not given) belongs 322 to 328 °C; to `O=CC(F)(F)C(F)(F)C(F)(F)C(F)(F)C(F)(F)C(F)(F)C(F)(F)C(F)(F)C=O`, 68 to 70.5 °C. As to `CC(=O)OC1CCCCC1C(C)(C)C` (stereo not given), the melting point stood at 35 °C. The same measure for `CN(C)CCCOc1nn(Cc2ccccc2)c2ccccc12`: 160 °C; for `COc1c(C)cc2c(c1C)CC2=O`: 51 °C; for `COc1ccc(C(=O)c2nn(-c3ccccc3)/c(=N\N=Cc3ccccc3Cl)s2)cc1`: 181 °C.

Consider `C=C1C2CC(C(=C(c3ccccc3)c3ccccc3)C2c2ccccc2)C1(C)C` (stereo not given), for which the melting point was determined as 115 °C. The same measure for `C#CC1(O)C=CC2C3CCC4=CC(=O)CCC4C3CCC21CC` (stereo not given): 198 °C; for `NC(=S)c1cccs1`: 108 °C. The compound `CC(N)C(O)c1cccc(O)c1` (stereo not given) came in with a melting point of 108 °C. To `Nc1ccc(-n2cncn2)cc1` belongs 142 to 144 °C. The same measure for `CC(C)(C)OC(=O)N1CCN(c2ccc(C=O)cn2)CC1`: 126 to 128 °C. To `CC1OC(=O)C2CC3CCCCC3C(C=CC3CCCC(C)N3C)C12` (single isomer, unassigned; (+)) belongs 130 to 136 °C; to `CCOC(=O)/C(C#N)=C(/c1ccc([N+](=O)[O-])cc1)C(C(=O)OCC)C(=O)OCC`, 110 °C.

`CCOC(=O)C(C)(C)N1CCN(c2ccc(Cl)cc2)CC1` had a melting point of 56 °C.

Take `CCP(=O)(CC)CC`: the melting point was 52 to 53 °C.

Consider `COc1ccc(CC#N)cc1Br`, for which the melting point is 52 °C. The same measure for `CCCCOc1ccc(CO)cc1`: 29 to 32 °C. `CC(O)(c1cc2ccccc2o1)c1cc2ccccc2o1`: the melting point was in the range of 91 to 92 °C. For the compound `CC12CCC3C(CCC4CC(C#N)CCC43C)C1CCC2=O` (stereo not given), the melting point came out at 164 °C. `BrCCI` returned a melting point of 28 °C.

With `Nc1ncn[nH]1`, the melting point was determined as 159 °C. For `Cc1n[nH]c(C)c1-c1ccc(-c2ccccc2)cc1`, the melting point fell in the range of 221 to 222 °C. To `CN(C)c1ccc(O)cc1` belongs 77 °C; to `CCCCCCCCOC(=O)CCCCCCCCC(=O)OCCCCCCCC`, -67 °C; to `Nc1[nH]ncc1-c1ccc(F)cc1`, 174 to 175 °C. In turn, `CC(=O)Oc1ccc(O)cc1` yielded a melting point of 62 °C.

In turn, `CC(=O)c1c(-c2ccccc2)noc1C` yielded a melting point of 55 to 58 °C. To `Cn1c2cc(N3CCCC3)cc(-c3ccccc3)c2c(=O)n1-c1ccccc1` belongs 159 °C; to `ClC1Cc2cc3c(cc21)OCO3` (stereo not given), 55 °C. The same measure for `CCOC(=O)C(C#N)=Cc1ccc(-c2ccccc2OC)o1`: 120 to 121 °C; for `COc1ccc(C2(C)CCc3oc4ccc(Cl)cc4c3-c3oc(C)cc32)cc1` (stereo not given): 144 °C. The compound `C=CC(=O)NC(O)C(O)NC(=O)C=C` (stereo not given) showed a melting point of 142 °C. To `COC(=O)CC(=O)c1cncc(Br)c1` belongs 88 to 93 °C; to `Cc1cc(Br)ccc1C#N`, 64 °C; to `NC(C(=O)O)c1ccc(O)cc1` (stereo not given), 240 °C. The compound `Cc1nc(-c2cccc(Br)c2)no1` returned a melting point of 81 to 83 °C. As to `CC(=O)OCC1OC(Oc2ccc([N+](=O)[O-])cc2)C(OC(C)=O)C(OC(C)=O)C1OC(C)=O` (stereo not given), the melting point was found to be 177 °C.

Regarding `S=c1[nH]ccn1-c1ccccc1Cl`, the melting point fell in the range of 246 to 248 °C. To `Nc1ccc(CO)cn1` belongs 120 °C; to `N[C@@H](CS)C(=O)O`, 240 °C; to `O=C(OCC(=O)N1CCCCCC1)c1ccccc1`, 108 °C. To `CC(=O)CCc1oc2c(Br)cc(Br)cc2c1-c1ccc(C)o1` belongs 107 to 108 °C; to `CCC(C)(C)c1ccc(O)c(C(C)(C)CC)c1`, 25 °C; to `COc1ccccc1NC(=S)c1cc(C(C)(C)C)c(O)c(C(C)(C)C)c1`, 185 to 186 °C. To `O=c1ccn(C2OC(CO)C(O)C2O)c(=O)[nH]1` (stereo not given) belongs 168 °C; to `Cc1ccc(O)c(F)c1F`, 37 °C; to `Cc1cc(=O)oc2cc(OC3OCC(O)C(O)C3O)ccc12` (stereo not given), 223 °C. Compound `Oc1c(O)c(Br)c(Br)c(Br)c1Br` had a melting point of 191 °C.

`OCCNC(CO)(CO)CO`: the melting point stood at 89 °C. To `Clc1ccc(Cn2c(CN3CCCC3)nc3ccccc32)cc1` belongs 167 °C; to `OCCN(CCO)CCCc1ccc(COc2ccccc2)cc1`, 63 to 64 °C. To `CC1(CO)CN(c2ccccc2)NC1=O` (stereo not given) belongs 125 °C; to `O=[N+]([O-])c1cc(C(O)Cc2ccc3ccccc3n2)ccc1C(O)Cc1ccc2ccccc2n1` (stereo not given), 172 °C; to `CC1=C(O)C(=O)C(C(C)C)CC1` (stereo not given), 83 °C.

Take `Cc1c(C)c(C)c(CC#N)c(C)c1C`: the melting point came to 112 °C. The same measure for `CC1CCCCN1` (stereo not given): -5 to -4 °C; for `CC(C)OC(=O)COc1ccc(Cl)cc1Cl`: 5 °C; for `CC(C)N(C(=O)COc1nnc(C(F)(F)F)s1)c1ccc(F)cc1`: 78 °C. The same measure for `COC(=O)Cc1c(Cl)[nH]c(C)c1C(=O)OC`: 86 °C. To `C=CC1(C)OC(=O)N(c2cc(Cl)cc(Cl)c2)C1=O` (stereo not given) belongs 108 °C; to `CC12CCC(C(O)=C(Br)C1=O)C2(C)C` (stereo not given), 188 °C; to `N[C@H](c1ccccc1)[C@H](N)c1ccccc1`, 81 to 84 °C. Compound `COC(=O)C1=C(C)NC(=O)N(C=O)C1c1ccccc1` (stereo not given) came in with a melting point of 236 °C. For `CCCCCC(C)OC(=O)COc1ccc(Cl)c2cccnc12` (stereo not given), the melting point is 69.4 °C. The same measure for `CC(C)(C(N)=O)n1nnc2ccccc21`: 187 °C. As for `O=C1[C@H]2Cc3ccccc3C[C@H]2C(=O)[C@@H]2Cc3ccccc3C[C@H]12`, the melting point lay within 224 to 227 °C. The same measure for `CCOC(=O)c1cc(-c2ccco2)on1`: 49 to 50 °C; for `COc1ccc(CC(=O)O)c(OC)c1`: 110 °C; for `CCc1ccccc1O`: 18 °C. `Cc1cc(C#N)ccc1Br` came in with a melting point of 53 °C.

With `COC(=O)Nc1nc2ccc(C(=O)c3ccccc3)cc2[nH]1`, the melting point stood at 288 °C. The same measure for `Cc1cc(O)c(C2CC3CCC2(C)C3(C)C)cc1C` (stereo not given): 95 °C.
